Test results as given in ChEMBL document CHEMBL1138935, “Lead optimization providing a series of flavone derivatives as potent nonsteroidal inhibitors of the cytochrome P450 aromatase enzyme” (J Med Chem, 2006).

Molecular target: T1, CYP17 (steroid 17-alpha-hydroxylase/17,20 lyase) (Homo sapiens, UniProt P05093)
T1 sequence (P05093 whole entry): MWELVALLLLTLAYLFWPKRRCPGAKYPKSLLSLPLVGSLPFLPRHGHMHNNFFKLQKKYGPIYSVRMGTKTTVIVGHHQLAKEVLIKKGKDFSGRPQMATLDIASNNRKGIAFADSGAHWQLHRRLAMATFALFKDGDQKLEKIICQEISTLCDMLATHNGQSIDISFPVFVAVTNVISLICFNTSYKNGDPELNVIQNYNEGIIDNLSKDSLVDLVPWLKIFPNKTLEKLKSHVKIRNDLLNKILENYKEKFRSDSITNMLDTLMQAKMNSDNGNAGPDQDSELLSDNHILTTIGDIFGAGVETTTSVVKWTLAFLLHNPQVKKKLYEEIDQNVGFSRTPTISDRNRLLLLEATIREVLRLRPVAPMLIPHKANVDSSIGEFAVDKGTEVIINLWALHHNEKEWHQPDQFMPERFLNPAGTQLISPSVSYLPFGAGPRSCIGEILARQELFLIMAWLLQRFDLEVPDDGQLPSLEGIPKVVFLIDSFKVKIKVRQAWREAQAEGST
Test: Inhibition of CYP17 at 2.5 uM

Row | Structure (SMILES) | inhibition at 2.5 µM
1 | COc1ccc2c(=O)c(Cn3ccnc3)c(-c3ccc(Br)cc3)oc2c1 | 29%
2 | O=c1c(Cn2ccnc2)c(-c2ccc(Br)cc2)oc2ccccc12 | 27%
3 | COc1ccc(-c2oc3ccccc3c(=O)c2Cn2ccnc2)cc1 | 26%

Results, then the molecule that gave them:

Row | inhibition at 2.5 µM | Structure (SMILES)
4 | 12% | COc1ccc2c(=O)c(Cn3ccnc3)c(-c3ccc(C#N)cc3)oc2c1
5 | 9% | COc1ccc2c(=O)c(Cn3ccnc3)c(-c3ccc([N+](=O)[O-])cc3)oc2c1
